Reference: paper PMC7898037, “Improving mitochondria and ER stability helps eliminate upper motor neuron degeneration that occurs due to mSOD1 toxicity and TDP‐43 pathology” (Clinical and Translational Medicine, 2021)
“And” between values parts separate entries of the source, which are not always exact repeats. Identical values can stand only once.

Columns and labels:
mice = conditions: cited from earlier work
[1] = set-up: method as in PMID 22189273, PMID 22837812; conditions: cited from earlier work
[2] = system: LMNs in the lumbar spinal cord of hSOD1^G93A‐UeGFP mice; test: Lower motor neuron (LMN) quantification in lumbar spinal cord, hSOD1^G93A‐UeGFP mice; format: in vivo; conditions: for Mean, Fig. 8E (LMN quantification in lumbar spinal cord) / Mean, Fig. 8F (LMN quantification in lumbar spinal cord) / Mean, Fig. 8G (LMN quantification in lumbar spinal cord): hSOD1G93A-UeGFP mice; for number of LMNs per section, lumbar spinal cord / number of NeuN^+/ChAT^+ LMNs (vulnerable to degeneration): hSOD1^G93A‐UeGFP mice, P120
Protocol: (§1) hSOD1^G93A‐UeGFP, prpTDP‐43^A315T‐UeGFP and WT‐UeGFP mice were weighed and the required NU‐9 dose per weight was calculated (20 or 100 mg/kg), which was administered once daily by oral gavage, starting at postnatal day (P)60 and continuing until P120. Animals from the untreated group received the vehicle (NMP and olive oil) only. For oral administration purposes, 20 ga × 38 mm plastic feeding tubes were used (Instech Laboratories, Inc). The gavage tip was inserted into the mouth directly over the tongue and into the pharynx. While observing the swallowing reflex, the tip was safely and smoothly slid into the esophagus. Once the administration was completed, the gavage tip was pulled straight out.
A 5‐mm block of lumbar spinal cord was sectioned in 50‐µm thick sections with a vibratome (Leica), and every other section was used for immunohistochemical analysis. LMNs were identified based on their location in the ventral horn and expression of the molecular marker ChAT. 10× Images were captured using an inverted epifluorescent Eclipse TE2000‐E microscope (Nikon). GFP^+/ChAT^+ and NeuN^+/ChAT^+ LMNs were quantified per section. The average number of LMNs per section is reported per mouse with n = 5 mice per group.

hSOD1^G93A‐UeGFP mice = test: Hanging wire test (max 60 s), hSOD1^G93A‐UeGFP mice; format: in vivo; set-up: Mean Diff. (wire hanging), vehicle vs. NU-9 / Mean (wire hanging): unit not given here; conditions: for Hanging wire test, group mean (Mean 1 / Mean 2): hSOD1G93A-UeGFP (GS) mice
Protocol: as §1
Behavior data were collected from hSOD1^G93A‐UeGFP and WT‐UeGFP mice (starting at P60 and every 7 days until P116) and from prpTDP‐43^A315T‐UeGFP mice (at P60, P90, and P120) with the following number of mice for each group: WT‐UeGFP vehicle (n = 10), hSOD1^G93A‐UeGFP vehicle (n = 6), WT‐UeGFP 20 mg/kg/day NU‐9 (n = 5), hSOD1^G93A‐UeGFP 20 mg/kg/day NU‐9 (n = 7), WT‐UeGFP 100 mg/kg/day NU‐9 (n = 11), hSOD1^G93A‐UeGFP 100 mg/kg/day NU‐9 (n = 9), prpTDP‐43^A315T‐UeGFP untreated (n ≥ 3), and prpTDP‐43^A315T‐UeGFP 100 mg/kg/day NU‐9 (n = 4) (Table S3).
Mice were placed on a wire mesh, which was then inverted and suspended above the home cage; the time when the animal fell was recorded. This test was performed three times for a maximum of 60 s each session, with a 1‐min rest period between each trial. The average performance for each session is presented as the average of the three trials.

[3] = hSOD1G93A-UeGFP vehicle minus NU-9 20 mg/kg/day, Tukey's multiple comparisons test
[4] = hSOD1G93A-UeGFP vehicle minus NU-9 100 mg/kg/day, Tukey's multiple comparisons test

C[C@H](Oc1cc(C(F)(F)F)cc(C(F)(F)F)c1)C1CC(=O)CC(=O)C1 [NU‐9]
MTD (mice; ip): 1280 mg/kg | NOAEL (mice; po, 7‐day repeat toxicology study): 100 mg/kg | Solubility (aqueous) [1]: ≥ 100 µM and ≥ 37 µg/ml | Mean, Fig. 8E (LMN quantification in lumbar spinal cord) ([2]; NU-9 20 mg/kg/day): 12.11 | Mean, Fig. 8F (LMN quantification in lumbar spinal cord) ([2]; NU-9 20 mg/kg/day): 6.506 | Mean, Fig. 8G (LMN quantification in lumbar spinal cord) ([2]; NU-9 20 mg/kg/day): 18.62 | Mean, Fig. 8E (LMN quantification in lumbar spinal cord) ([2]; NU-9 100 mg/kg/day): 9.708 | Mean, Fig. 8F (LMN quantification in lumbar spinal cord) ([2]; NU-9 100 mg/kg/day): 4.426 | Mean, Fig. 8G (LMN quantification in lumbar spinal cord) ([2]; NU-9 100 mg/kg/day): 14.13 | Mean Diff., Fig. 8E, GS Vehicle vs. GS NU-9 (20) [2, 3]: -1.853 | Mean Diff., Fig. 8F, GS Vehicle vs. GS NU-9 (20) [2, 3]: 0.3602 | Mean Diff., Fig. 8G, GS Vehicle vs. GS NU-9 (20) [2, 3]: -1.493 | Mean Diff., Fig. 8E, GS Vehicle vs. GS NU-9 (100) [2, 4]: 0.5524 | Mean Diff., Fig. 8F, GS Vehicle vs. GS NU-9 (100) [2, 4]: 2.44 | Mean Diff., Fig. 8G, GS Vehicle vs. GS NU-9 (100) [2, 4]: 2.992 | number of LMNs per section, lumbar spinal cord ([2]; 20 mg/kg/day): 18.6 ± 0.4 LMN | number of NeuN^+/ChAT^+ LMNs (vulnerable to degeneration) ([2]; 20 mg/kg/day): 12.1 ± 0.4 LMN | number of LMNs per section, lumbar spinal cord ([2]; 100 mg/kg/day): 14.1 ± 1.3 LMN | number of NeuN^+/ChAT^+ LMNs (vulnerable to degeneration) ([2]; 100 mg/kg/day): 9.7 ± 0.9 LMN | numbers of GFP^+ and ChAT^+ LMN (resistant to degeneration) ([2]; regardless of genotype or treatment): comparable | Hanging wire test, group mean (Mean 1 / Mean 2) (hSOD1^G93A‐UeGFP mice; NU-9 20 mg/kg/day, P102, max 60 s): 43 s | Hanging wire test, group mean (Mean 1 / Mean 2) (hSOD1^G93A‐UeGFP mice; NU-9 20 mg/kg/day, P109, max 60 s): 37.48 s | Hanging wire test, group mean (Mean 1 / Mean 2) (hSOD1^G93A‐UeGFP mice; NU-9 20 mg/kg/day, P116, max 60 s): 27.33 s | Hanging wire test, group mean (Mean 1 / Mean 2) (hSOD1^G93A‐UeGFP mice; NU-9 100 mg/kg/day, P102, max 60 s): 53.3 s | Hanging wire test, group mean (Mean 1 / Mean 2) (hSOD1^G93A‐UeGFP mice; NU-9 100 mg/kg/day, P109, max 60 s): 58.89 s | Hanging wire test, group mean (Mean 1 / Mean 2) (hSOD1^G93A‐UeGFP mice; NU-9 100 mg/kg/day, P116, max 60 s): 51.15 s | Hanging wire test, mean difference vehicle minus NU-9 (hSOD1^G93A‐UeGFP mice; hSOD1G93A-UeGFP (GS) vehicle vs. NU-9 20 mg/kg/day, P102): -0.6667 s | Hanging wire test, mean difference vehicle minus NU-9 (hSOD1^G93A‐UeGFP mice; hSOD1G93A-UeGFP (GS) vehicle vs. NU-9 20 mg/kg/day, P109): 6.746 s | Hanging wire test, mean difference vehicle minus NU-9 (hSOD1^G93A‐UeGFP mice; hSOD1G93A-UeGFP (GS) vehicle vs. NU-9 20 mg/kg/day, P116): -4.722 s | Hanging wire test, mean difference vehicle minus NU-9 (hSOD1^G93A‐UeGFP mice; hSOD1G93A-UeGFP (GS) vehicle vs. NU-9 100 mg/kg/day, P102): -10.96 s | Hanging wire test, mean difference vehicle minus NU-9 (hSOD1^G93A‐UeGFP mice; hSOD1G93A-UeGFP (GS) vehicle vs. NU-9 100 mg/kg/day, P109): -14.67 s | Hanging wire test, mean difference vehicle minus NU-9 (hSOD1^G93A‐UeGFP mice; hSOD1G93A-UeGFP (GS) vehicle vs. NU-9 100 mg/kg/day, P116): -28.54 s | Mean Diff. (wire hanging), vehicle vs. NU-9 (hSOD1^G93A‐UeGFP mice; hSOD1G93A-UeGFP vehicle vs. NU-9 20 mg/kg/day, P60): -0.5238 | Mean Diff. (wire hanging), vehicle vs. NU-9 (hSOD1^G93A‐UeGFP mice; hSOD1G93A-UeGFP vehicle vs. NU-9 20 mg/kg/day, P67): 4.175 | Mean Diff. (wire hanging), vehicle vs. NU-9 (hSOD1^G93A‐UeGFP mice; hSOD1G93A-UeGFP vehicle vs. NU-9 20 mg/kg/day, P74): -3.46 | Mean Diff. (wire hanging), vehicle vs. NU-9 (hSOD1^G93A‐UeGFP mice; hSOD1G93A-UeGFP vehicle vs. NU-9 20 mg/kg/day, P81): -1.095 | Mean Diff. (wire hanging), vehicle vs. NU-9 (hSOD1^G93A‐UeGFP mice; hSOD1G93A-UeGFP vehicle vs. NU-9 20 mg/kg/day, P88): -2.452 | Mean Diff. (wire hanging), vehicle vs. NU-9 (hSOD1^G93A‐UeGFP mice; hSOD1G93A-UeGFP vehicle vs. NU-9 20 mg/kg/day, P95): -5.254 | Mean Diff. (wire hanging), vehicle vs. NU-9 (hSOD1^G93A‐UeGFP mice; hSOD1G93A-UeGFP vehicle vs. NU-9 20 mg/kg/day, P102): -0.6667 | Mean Diff. (wire hanging), vehicle vs. NU-9 (hSOD1^G93A‐UeGFP mice; hSOD1G93A-UeGFP vehicle vs. NU-9 20 mg/kg/day, P109): 6.746 | Mean Diff. (wire hanging), vehicle vs. NU-9 (hSOD1^G93A‐UeGFP mice; hSOD1G93A-UeGFP vehicle vs. NU-9 20 mg/kg/day, P116): -4.722 | Mean Diff. (wire hanging), vehicle vs. NU-9 (hSOD1^G93A‐UeGFP mice; hSOD1G93A-UeGFP vehicle vs. NU-9 100 mg/kg/day, P60): -5.333 | Mean Diff. (wire hanging), vehicle vs. NU-9 (hSOD1^G93A‐UeGFP mice; hSOD1G93A-UeGFP vehicle vs. NU-9 100 mg/kg/day, P67): 1.222
